# Source: ChEMBL document CHEMBL4028853, “Microbiota-Host Transgenomic Metabolism, Bioactive Molecules from the Inside” (J Med Chem, 2018)
# Legend:
# [1] = target: T1, Free fatty acid receptor 2 (Homo sapiens, UniProt O15552); assay: Agonist activity at human GPCR43 transfected in HEK293 cells assessed as [35S]GTPgammaS binding by scintillation counting method
# T1 sequence (O15552 whole entry): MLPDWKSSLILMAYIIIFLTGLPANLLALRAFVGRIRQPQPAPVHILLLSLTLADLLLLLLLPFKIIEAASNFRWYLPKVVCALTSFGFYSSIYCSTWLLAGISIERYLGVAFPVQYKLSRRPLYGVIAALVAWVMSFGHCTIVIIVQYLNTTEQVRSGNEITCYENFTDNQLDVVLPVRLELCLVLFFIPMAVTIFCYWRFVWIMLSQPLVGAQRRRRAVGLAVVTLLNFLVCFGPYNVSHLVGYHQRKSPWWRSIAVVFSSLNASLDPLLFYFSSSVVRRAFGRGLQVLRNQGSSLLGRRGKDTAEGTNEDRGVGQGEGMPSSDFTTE
# [2] = target: T2, Free fatty acid receptor 3 (Homo sapiens, UniProt O14843); assay: Agonist activity at human GPCR41 transfected in HEK293 cells assessed as [35S]GTPgammaS binding by scintillation counting method; type: functional, cell-based
# T2 sequence (O14843 whole entry): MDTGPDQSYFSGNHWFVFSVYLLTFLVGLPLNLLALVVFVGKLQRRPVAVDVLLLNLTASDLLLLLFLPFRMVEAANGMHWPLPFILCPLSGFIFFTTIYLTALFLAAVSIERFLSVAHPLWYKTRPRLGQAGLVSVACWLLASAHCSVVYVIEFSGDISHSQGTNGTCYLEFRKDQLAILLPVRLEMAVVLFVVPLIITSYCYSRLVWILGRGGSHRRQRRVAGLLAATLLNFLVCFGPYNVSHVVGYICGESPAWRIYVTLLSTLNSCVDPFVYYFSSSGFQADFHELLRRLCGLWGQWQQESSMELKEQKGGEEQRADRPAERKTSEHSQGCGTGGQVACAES
Compound,EC50 [1] [µM],EC50 [2] [µM]
CC(=O)O [ACETIC ACID],250 to 500,12 to 274
CCCC(=O)O [BUTYRIC ACID],,12 to 274
CCC(=O)O [PROPIONIC ACID],,12 to 274
